Measured values published in US8629283B2, “Compounds that modulate negative-sense, single-stranded RNA virus replication and uses thereof” (Icahn School of Medicine at Mount Sinai, priority 2008, dated 2014).
Where two headings read alike, the source gives them in different places. Marks after values point to notes of the source that are not given here.

Key:
[1] = in vitro; settings: mouse
[2] = test system: influenza A virus (FluA)
[3] = in vitro; settings: dog
[4] = test system: influenza A virus (FluA); experiment: microbe, parasite or virus in culture
[5] = test system: vesicular stomatitis virus (VSV); type: cell-based
[6] = test system: A549 cells; settings: human
[7] = test system: influenza virus; type: cell-based
[8] = test system: influenza A virus (FluA); experiment: in vitro; settings: human
[9] = test system: Newcastle disease virus (NDV/B1); type: cell-based
[10] = test system: influenza B/Yamagata/88 virus; type: cell-based
[11] = test system: influenza virus WSN; type: cell-based, influenza A virus
[12] = test system: host cell replication machinery
[13] = in vitro; settings: human
[14] = biological target: influenza viral RNA polymerase (Influenza A virus, UniProt P03427+P03430+P15659); type: cell-based
[15] = in vitro; settings: human; remark: listed apart in the source
[16] = test system: influenza A/Wyoming/03/2003 virus; type: cell-based
[17] = test system: H5N1/PR8 virus; type: cell-based, influenza A virus
[18] = test system: influenza A/Moscow/10/99 virus; type: cell-based
[19] = test system: influenza A/WSN/33 virus
[20] = test system: influenza A/WSN/33 virus; type: cell-based
[21] = test system: caspase-3; settings: human, 6 h
[22] = test system: retrovirus MLV; type: cell-based
[23] = test system: VSV; type: cell-based, vesicular stomatitis virus

| SMILES | CC50 [1] | Inhibition of FluA (Table 5) [2] | inhibition of FluA (A549) [2] | inhibition of FluA (HTBE) [2] | inhibition of FluA (MDCK) [2] | inhibition of FluA (MEF) [2] | inhibition of influenza virus replication [2] | SI (MDCK) [2] | CC50 [3] | IC50 ([4]; A549, read-out: IC50 (A549)) | IC50 ([4]; MDCK, read-out: IC50 (MDCK)) | IC50 ([4]; MEF, read-out: IC50 (MEF)) | IC50 ([4]; read-out: IC50 (HTBE)) | CC10 (A549), concentration of 10% cytotoxicity [6] | effect on entry of influenza virus [7] | selectivity ratio [8] | inhibition of FluB (A549) [10] | IC50 ([4]; read-out: IC50 in HTBE cells) | increase of viral titer compared to untreated control [19] | also measured |
| --- | --- | --- | --- | --- | --- | --- | --- | --- | --- | --- | --- | --- | --- | --- | --- | --- | --- | --- | --- | --- |
| CN(c1nc(-c2ccc(Br)cc2)cs1)C1CCS(=O)(=O)C1 (stereo not drawn) [A35, 4-(4-bromophenyl)-N-methyl-N-(tetrahydro-1,1-dioxido-3-thienyl)-2-thiazolamine] | 96600 nM | 99.99%* | 99.988% | 99.98% | ~75% | ~99.6% | up to 4 logs | 7 | 26800 nM | 2100 nM | 3910 nM | 2640 nM | 1980 nM | 11200 nM | did not affect the entry step | 53 | 63% (A549)* | – | – | inhibition of FluA (293T) [2]: ~50%; inhibition of FluA (Detroit) [2]: ~95.6%; inhibition of FluA (HUH7.5) [2]: ~98.4%; IC50 ([4]; HEK-293T, read-out: IC50 (293T)): 6200 nM; IC50 ([4]; Huh7.5, read-out: IC50 (HUH7.5)): 3970 nM; IC50 ([4]; read-out: IC50 (Detroit)): 2070 nM; inhibition of VSV [5]: less significant inhibition; inhibition of NDV [9]: less significant inhibition; inhibition of influenza B virus [10]: less significant inhibition; inhibition of viral replication [11]: 4 logs |
| Cc1[nH]c2ccc(-c3nnc(SCC(=O)N4CCCC4)o3)cc2c1C [A3, 2-(5-(2,3-dimethyl-1H-indol-5-yl)-1,3,4-oxadiazol-2-ylthio)-1-(pyrrolidin-1-yl)ethanone] | > 100000 nM | 99.2%* | 97% | 99.99% | ~99.6% | ~91.2% | – | >122 | > 100000 nM | 540 nM | 820 nM | 3600 nM | 42 nM | 38000 nM | did not inhibit viral entry | 496 | 94% (A549)* | 42 nM | – | effect on overall host cell replication machinery (renilla luciferase control plasmid) [12]: not affected; CC50 at 24 h [13]: 268000 nM; inhibition of viral RNA polymerase activity [14]: up to 99%; CC50 [15]: 108000 nM; inhibition of growth of influenza B virus [10]: about 1.5 logs |
| NC(=NC(=O)c1nc(Cl)c(N)nc1N)NCc1ccc(Cl)cc1Cl [2′,4′-dichlorobenzamil] | – | – | – | – | – | – | – | – | – | – | – | – | – | – | – | – | – | – | 10^3 fold | maximum viral titer compared to untreated cells [16]: significant increase; increase of viral titer compared to untreated cells [17]: ~20 fold; increase of viral titer compared to untreated cells [10]: 4 fold; maximum viral titer compared to untreated cells [18]: significant increase; increase in viral titers in Vero cells [19]: 11 fold; influenza virus growth versus untreated control [19]: boost influenza virus replication |
| NC(=Nc1ccccc1)NC(=O)c1nc(Cl)c(N)nc1N [phenamil] | – | – | – | – | – | – | – | – | – | – | – | – | – | – | – | – | – | – | 16 fold | HTS result (luciferase signal of influenza mini-genome reporter) [20]: increased luciferase signals; induction of apoptosis (caspase-3 activity, fluorescence vs untreated cells) [21]: 1.3 fold |
| COc1cc2c(O)c3c(c(-c4ccc5c(c4)OCO5)c2cc1OC)C(=O)OC3 [C2, 9-(benzo[d][1,3]dioxol-5-yl)-4-hydroxy-6,7-dimethoxynaphtho[2,3-c]furan-1(3H)-one] | 4850 nM | – | 94.7% | 99.96% | ~87.5% | ~96% | up to 3.5 logs | 4 | 670 nM | 1600 nM | 150 nM | 340 nM | 59 nM | – | inhibited | 82 | 63% (A549)* | 59 nM | – | effect on entry of MLV [22]: unaffected; effect on entry of VSV [23]: inhibited; effect on course of infection [11]: did not affect the course of infection |
